Values after ≈ are worked out from the molar mass of the structure shown.
Experiments:
[1] = system: Staphylococcus aureus ATCC 29213; assay: MIC, growth inhibition in Mueller Hinton Broth; type: cell-based; conditions: ATCC29213, S. aureus ATCC 29213, Gram positive, read-out: Minimum Inhibitory Concentration S. aureus ATCC 29213
[2] = system: Escherichia coli ATCC 25922; assay: MIC, growth inhibition in Mueller Hinton Broth; type: cell-based; conditions: ATCC25922, E. coli ATCC 25922, Gram-negative, read-out: Minimum Inhibitory Concentration E. coli ATCC 25922
[3] = system: Staphylococcus aureus ZYABL 006; assay: MIC against fluoroquinolone resistant strain; type: cell-based; conditions: ZYABL006, quinolone resistant clinical strain, read-out: Minimum Inhibitory Concentration Staphylococcus aureus ZYABL 006
Topoisomerase II = Topoisomerase II (UniProt P20831); assay: Topoisomerase II inhibition, gel electrophoresis method; type: biochemical; conditions: 37° C. for 30 min, read-out: Invitro IC50 Topoisomerase II
Topoisomerase II, sequence (P20831 whole entry): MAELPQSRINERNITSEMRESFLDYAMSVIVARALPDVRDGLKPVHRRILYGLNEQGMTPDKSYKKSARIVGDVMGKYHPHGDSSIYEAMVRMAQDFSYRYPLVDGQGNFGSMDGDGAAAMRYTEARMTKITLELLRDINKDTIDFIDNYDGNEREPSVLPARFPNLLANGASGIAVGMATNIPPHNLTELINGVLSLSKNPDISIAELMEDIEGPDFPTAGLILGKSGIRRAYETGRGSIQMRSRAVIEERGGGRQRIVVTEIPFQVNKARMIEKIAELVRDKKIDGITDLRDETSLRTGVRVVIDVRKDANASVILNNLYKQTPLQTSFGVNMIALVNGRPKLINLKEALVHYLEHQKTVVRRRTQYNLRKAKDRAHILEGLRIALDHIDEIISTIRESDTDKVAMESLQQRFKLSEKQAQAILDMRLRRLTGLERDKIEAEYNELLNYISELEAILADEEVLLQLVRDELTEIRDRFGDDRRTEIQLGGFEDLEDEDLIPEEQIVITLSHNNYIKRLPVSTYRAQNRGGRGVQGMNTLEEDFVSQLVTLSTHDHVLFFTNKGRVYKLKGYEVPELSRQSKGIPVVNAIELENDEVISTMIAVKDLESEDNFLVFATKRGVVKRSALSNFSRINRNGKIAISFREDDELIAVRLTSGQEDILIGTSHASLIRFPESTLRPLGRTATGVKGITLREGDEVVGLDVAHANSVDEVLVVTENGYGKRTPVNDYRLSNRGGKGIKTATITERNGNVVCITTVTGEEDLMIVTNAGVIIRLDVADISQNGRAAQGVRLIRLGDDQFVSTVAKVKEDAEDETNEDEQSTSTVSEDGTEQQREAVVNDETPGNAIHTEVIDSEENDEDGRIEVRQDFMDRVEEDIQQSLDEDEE
Experimental: (§1) Evaluation of Topoisomerase II/IV inhibition using gel electrophoresis method: Topoisomerase II/IV (1 unit, Inspiralis) was added to a reaction mixture of DNA (pHOT/kDNA, Topogen) and ATP in appropriate buffers following which different concentrations of the test compounds were added and incubated at 37° C. for 30 min. The reaction was terminated after 30 minutes by the addition of stop buffer. The resulting DNA (relaxed, supercoiled or decatanated) was extracted using chloroform: isoamyl alcohol mixture and was separated using 1% agarose gel electrophoresis. Gel was stained with ethidium bromide for 20 minutes, washed with distilled water and the images were captured for further analysis. The band Intensities from the image were measured using Image J software and the half-maximal […] inhibitory concentration was deduced using Graphpad Prism.

Topoisomerase IV = molecular target: T1, Topoisomerase IV (Escherichia coli, UniProt P0AFI2); assay: Topoisomerase IV inhibition, gel electrophoresis method; type: biochemical; conditions: 37° C. for 30 min, read-out: Invitro IC50 Topoisomerase IV
T1 construct: purchased Inspiralis
T1 sequence (P0AFI2 whole entry): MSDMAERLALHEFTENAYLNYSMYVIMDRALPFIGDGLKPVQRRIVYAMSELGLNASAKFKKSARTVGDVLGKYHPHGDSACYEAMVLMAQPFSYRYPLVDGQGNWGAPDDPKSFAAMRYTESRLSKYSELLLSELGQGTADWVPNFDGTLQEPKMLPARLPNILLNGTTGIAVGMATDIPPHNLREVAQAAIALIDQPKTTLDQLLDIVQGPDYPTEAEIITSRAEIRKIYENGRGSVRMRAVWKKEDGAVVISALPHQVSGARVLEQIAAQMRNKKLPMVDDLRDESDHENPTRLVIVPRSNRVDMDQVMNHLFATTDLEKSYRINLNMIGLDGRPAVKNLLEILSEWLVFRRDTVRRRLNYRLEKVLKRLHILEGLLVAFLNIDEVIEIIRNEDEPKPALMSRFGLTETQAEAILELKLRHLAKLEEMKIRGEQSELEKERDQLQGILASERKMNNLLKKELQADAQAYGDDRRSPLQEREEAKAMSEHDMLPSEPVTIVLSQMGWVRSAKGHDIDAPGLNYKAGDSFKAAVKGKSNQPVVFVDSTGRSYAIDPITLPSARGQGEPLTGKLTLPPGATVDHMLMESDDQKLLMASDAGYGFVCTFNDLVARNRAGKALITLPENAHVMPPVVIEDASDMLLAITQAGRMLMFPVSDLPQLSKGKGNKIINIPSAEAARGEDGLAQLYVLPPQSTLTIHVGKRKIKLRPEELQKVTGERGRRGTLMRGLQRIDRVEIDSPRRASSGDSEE
T1 sequence (P20083 whole entry, further chain): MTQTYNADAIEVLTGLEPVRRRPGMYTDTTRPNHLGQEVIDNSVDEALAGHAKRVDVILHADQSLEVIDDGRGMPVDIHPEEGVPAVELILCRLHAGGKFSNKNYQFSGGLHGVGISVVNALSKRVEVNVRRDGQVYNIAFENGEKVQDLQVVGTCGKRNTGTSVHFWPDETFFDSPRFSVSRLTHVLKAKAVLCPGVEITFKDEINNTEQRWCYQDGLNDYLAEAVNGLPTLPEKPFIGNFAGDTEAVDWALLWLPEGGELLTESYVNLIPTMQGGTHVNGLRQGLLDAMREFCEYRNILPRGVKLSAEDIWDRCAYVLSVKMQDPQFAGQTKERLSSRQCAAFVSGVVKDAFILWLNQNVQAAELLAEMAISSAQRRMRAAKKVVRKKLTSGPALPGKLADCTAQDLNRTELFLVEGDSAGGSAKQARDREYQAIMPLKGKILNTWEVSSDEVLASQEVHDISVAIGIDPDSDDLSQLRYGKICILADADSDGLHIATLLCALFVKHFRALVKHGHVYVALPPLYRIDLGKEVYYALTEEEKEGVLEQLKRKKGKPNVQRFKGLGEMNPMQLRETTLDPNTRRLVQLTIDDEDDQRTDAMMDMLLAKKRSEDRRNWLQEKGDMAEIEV
Experimental: as §1

hERG channel = molecular target: T2, hERG channel (Homo sapiens, UniProt Q12809); assay: hERG binding study, FluxOR potassium ion channel assay; type: cell-based; conditions: hERG CHO cells, thallium flux, 20 min incubation
T2 construct: expressed in transfected cells; host or cells: CHO cells
T2 sequence (Q12809 whole entry): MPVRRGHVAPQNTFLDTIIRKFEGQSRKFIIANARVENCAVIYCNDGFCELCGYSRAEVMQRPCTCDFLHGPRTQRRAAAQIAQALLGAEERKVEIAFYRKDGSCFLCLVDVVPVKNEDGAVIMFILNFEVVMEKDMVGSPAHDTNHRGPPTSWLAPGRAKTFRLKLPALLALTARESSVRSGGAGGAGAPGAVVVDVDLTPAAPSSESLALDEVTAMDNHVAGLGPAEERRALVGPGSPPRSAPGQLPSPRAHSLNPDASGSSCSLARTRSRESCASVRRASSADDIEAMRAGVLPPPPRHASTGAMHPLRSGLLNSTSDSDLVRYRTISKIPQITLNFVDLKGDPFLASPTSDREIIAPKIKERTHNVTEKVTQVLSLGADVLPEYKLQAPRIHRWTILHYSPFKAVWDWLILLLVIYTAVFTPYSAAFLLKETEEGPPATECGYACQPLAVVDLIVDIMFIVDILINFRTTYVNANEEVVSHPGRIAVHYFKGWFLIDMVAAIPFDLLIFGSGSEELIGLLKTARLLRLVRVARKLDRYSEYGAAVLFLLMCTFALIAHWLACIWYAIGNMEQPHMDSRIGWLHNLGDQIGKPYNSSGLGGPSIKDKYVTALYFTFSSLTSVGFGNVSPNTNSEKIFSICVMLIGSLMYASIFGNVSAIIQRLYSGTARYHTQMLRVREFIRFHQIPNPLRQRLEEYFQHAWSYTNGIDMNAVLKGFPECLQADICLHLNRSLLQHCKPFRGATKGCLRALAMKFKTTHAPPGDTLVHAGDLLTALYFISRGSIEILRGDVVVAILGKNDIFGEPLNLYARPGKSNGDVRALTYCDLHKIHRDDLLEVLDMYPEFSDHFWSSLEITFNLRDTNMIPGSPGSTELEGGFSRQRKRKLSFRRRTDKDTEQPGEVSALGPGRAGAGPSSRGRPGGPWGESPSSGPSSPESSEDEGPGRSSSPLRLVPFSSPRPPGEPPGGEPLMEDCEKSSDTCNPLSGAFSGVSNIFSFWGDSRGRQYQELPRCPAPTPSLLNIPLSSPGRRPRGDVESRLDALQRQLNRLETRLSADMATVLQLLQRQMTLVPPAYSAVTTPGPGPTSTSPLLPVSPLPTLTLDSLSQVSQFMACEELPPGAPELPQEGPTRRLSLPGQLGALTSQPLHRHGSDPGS
Experimental: FluxOR™ Potassium Ion Channel Assay
Thallium flows down its concentration gradient into the cells, and channel activity is detected with indicator dye that increases in cytosolic fluorescence. Stably expressing hERG CHO cells are checked with test compounds for hERG liability. Compounds incubated for 20 min with cells then stimulation buffer was added and fluorescence measured on TECAN multimode reader. If test compound is inhibiting hERG channel then it will not allow the thallium to flows down in the cells. Vehicle control is considered as total hERG response while treatment with Astemizole as a total hERG channel inhibition and based on that test compounds hERG channel inhibition calculated.

[4] = system: Mycobacterium tuberculosis H37Rv; assay: Mycobacterium tuberculosis H37Rv inhibition assay (MIC); type: cell-based
Experimental: Mycobacterium tuberculosis H37Rv Inhibition Assay
The measurement of the minimum inhibitory concentration (MIC) for each tested compound was performed in 96 wells flat bottom, polystyrene microtiter plates following standard protocol.

[5] = system: Staphylococcus aureus (BAA38); assay: MIC testing against broad panel of strains; conditions: BAA38, read-out: MIC Staphylococcus aureus (BAA38)
Experimental: (§2) The ability of the invention compounds disclosed herein to achieve an antibacterial effect may be evaluated with regard to their ability to inhibit the growth of bacterial species like Escherichia coli ATCC 25922, Staphylococcus aureus ATCC 29213 using an assay based on the following Minimum Inhibitory Concentration (MIC) protocol:
(§3) The test bacteria are grown in Muellor Hinton Broth (M1657)—MHB, 25 grams of the powder is dissolved in 1000 ml distilled water and sterilized by autoclaving at 15 lbs pressure (121° C.) for 20 minutes. The medium sterility is checked by incubating at 37° C. for a period of 48 h.
(§4) Bacterial cultures that are stored as glycerol stocks at −80° C. are sub cultured on LB agar plates to obtain isolated colonies. A single colony of each strain is cultured in LB broth. The cultures are incubated at 37° C., 200 rpm till they reach an optical density (OD at 600 nm) of 0.8 to 1. This log phase culture is diluted in LB broth to a cell number of 5-8*10^5 CFU/mL to be used as inoculum for MIC experiments.
(§5) Test compounds were diluted in their respective solvents and added to a final concentration ranging from 16 to 0.12 μg/ml in 150 μl MHB in 96 well plates.
(§6) Controls to monitor the effects of DMSO and media sterility are included. […] The following morning, the plates are read using a Spectrophotometer at 600 nm wavelength.

[6] = system: Staphylococcus pneumonia (ATCC700906); assay: MIC testing against broad panel of strains; conditions: ATCC700906, read-out: MIC Staphylococcus pneumonia (ATCC700906)
Experimental: as §2, §3, §4, §5, §6

[7] = system: Enterococcus faecalis (ATCC700802); assay: MIC testing against broad panel of strains; conditions: ATCC700802, read-out: MIC Enterococcus faecalis (ATCC700802)
Experimental: as §2, §3, §4, §5, §6

[8] = system: Escherichia coli (ATCC10536); assay: MIC testing against broad panel of strains; conditions: ATCC10536, read-out: MIC Escherichia coli (ATCC10536)
Experimental: as §2, §3, §4, §5, §6

[9] = system: Acinetobacter baumannii (BAA1605); assay: MIC testing against broad panel of strains; conditions: BAA1605, read-out: MIC Acinetobacter baumannii (BAA1605)
Experimental: as §2, §3, §4, §5, §6

[10] = system: Klebsiella pneumonia (ATCC35657); assay: MIC testing against broad panel of strains; conditions: Klebsiella pneumoniae, ATCC35657, read-out: MIC Klebsiella pneumonia (ATCC35657)
Experimental: as §2, §3, §4, §5, §6

[11] = system: Mycobacterium tuberculosis; conditions: from WO 2008009700 / J. Med. Chem. 2014, 57, 4889-4905; cited from earlier work
S. aureus-ATCC 29213 = conditions: from WO 2018172925; cited from earlier work
S. pnuemoniae ATCC6301 = conditions: from WO 2018172925; cited from earlier work
[12] = system: Enterococcus Faecalis ATCC29212; conditions: from WO 2018172925; cited from earlier work
[13] = system: Moraxella catarrhalis ATCC8176; conditions: from WO 2018172925; cited from earlier work
E. coli ATCC 25922 = conditions: from WO 2018172925; cited from earlier work
K pneumonia ATCC 700603 = conditions: from WO 2018172925; cited from earlier work

| Structure (SMILES) | MIC [1] [µg/mL] | MIC [2] [µg/mL] | MIC [3] [µg/mL] | IC50 (Topoisomerase II) [nM] | IC50 (Topoisomerase IV) [nM] | IC50 (hERG channel) [nM] | other results |
| --- | --- | --- | --- | --- | --- | --- | --- |
| O=C1CSc2ccc(CNC3CCN(CCn4c(=O)ccc5ccc(F)cc54)CC3)cc2N1 [Example 5, 6-(((1-(2-(7-fluoro-2-oxoquinolin-1(2H)-yl)ethyl)piperidin-4-yl)amino)methyl)-2H-benzo[b][1,4]thiazin-3(4H)-one] | 0.25 (≈ 0.536 µM) | 0.25 (≈ 0.536 µM) | < 0.125 | 38.4 | 800 | > 10000 | – |
| N#Cc1ccc2ncc(=O)n(CCN3CCC(NCc4ccc5c(c4)NC(=O)CS5)CC3)c2c1 [Example 6, 3-oxo-4-(2-(4-(((3-oxo-3,4-dihydro-2H-benzo[b][1,4]thiazin-6-yl)methyl)amino)piperidin-1-yl)ethyl)-3,4-dihydroquinoxaline-6-carbonitrile] | < 0.125 | < 0.125 | – | – | – | – | – |
| N#Cc1ccc2ccc(=O)n(CCN3CCC(NCc4ccc5c(c4)NC(=O)CS5)CC3)c2c1 [Example 3, 2-oxo-1-(2-(4-(((3-oxo-3,4-dihydro-2H-benzo[b][1,4]thiazin-6-yl)methyl)amino)piperidin-1-yl)ethyl)-1,2-dihydroquinoline-7-carbonitrile] | 0.06 (≈ 0.127 µM) | 0.125 (≈ 0.264 µM) | < 0.125 | 3.2 | 300 | > 10000 | inhibition of Mycobacterium tuberculosis (in words) [4]: potent inhibition; MIC ([4]; Mycobacterium tuberculosis, H37RV, 96 well microtiter plates): 0.25 µM (≈ 0.118 µg/mL); MIC [5]: 0.125 µg/mL (≈ 0.264 µM); MIC [6]: 0.125 µg/mL (≈ 0.264 µM); MIC [7]: 0.5 µg/mL (≈ 1.06 µM); MIC [8]: 0.125 µg/mL (≈ 0.264 µM); MIC [9]: 0.25 µg/mL (≈ 0.528 µM); MIC [10]: 0.25 µg/mL (≈ 0.528 µM) |
| N#Cc1ccc2ccc(=O)n(CCN3CCC(NCc4ccc5c(c4)NC(=O)CO5)CC3)c2c1 [Example 2, 2-oxo-1-(2-(4-(((3-oxo-3,4-dihydro-2H-benzo[b][1,4]oxazin-6-yl)methyl)amino)piperidin-1-yl)ethyl)-1,2-dihydroquinoline-7-carbonitrile] | 0.25 (≈ 0.546 µM) | 0.25 (≈ 0.546 µM) | < 0.125 | 3.4 | 1300 | > 10000 | – |
| O=C1COc2ccc(CNC3CCN(CCn4c(=O)ccc5ccc(F)cc54)CC3)cc2N1 [Example 4, 6-(((1-(2-(7-fluoro-2-oxoquinolin-1(2H)-yl)ethyl)piperidin-4-yl)amino)methyl)-2H-benzo[b][1,4]oxazin-3(4H)-one] | < 0.125 | < 0.125 | < 0.125 | 6.9 | 400 | > 10000 | – |
| N#Cc1ccc2ccc(=O)n(CCN3CCC(NCc4ccc5c(c4)OCCO5)CC3)c2c1 [Example 1, 1-(2-(4-(((2,3-dihydrobenzo[b][1,4]dioxin-6-yl)methyl)amino)piperidin-1-yl)ethyl)-2-oxo-1,2-dihydroquinoline-7-carbonitrile] | 0.03 (≈ 0.0675 µM) | 0.5 (≈ 1.12 µM) | < 0.125 | 44 | 900 | > 30000 | – |
| N#Cc1ccc2ccc(=O)n(CCN3CCC(NCc4cc5c(cn4)OCCO5)CC3)c2c1 [Example 54] | – | – | – | – | – | – | MIC against Mycobacterium tuberculosis [11]: 1 µM (≈ 0.446 µg/mL) |
| Cc1ccc(CNC2CCN(CCn3c(=O)ccc4ccc(C#N)cc43)CC2)cc1[N+](=O)[O-] [VT-03-00065] | – | – | – | – | – | – | MIC S. aureus-ATCC 29213 (S. aureus-ATCC 29213): 0.25 µg/mL (≈ 0.561 µM); MIC S. pnuemoniae ATCC6301 (S. pnuemoniae ATCC6301): 4 µg/mL (≈ 8.98 µM); MIC Enterococcus Faecalis ATCC29212 [12]: > 32 µg/mL; MIC Moraxella catarrhalis ATCC8176 [13]: > 32 µg/mL; MIC E. coli ATCC 25922 (E. coli ATCC 25922): > 32 µg/mL; MIC K pneumonia ATCC 700603 (K pneumonia ATCC 700603): > 32 µg/mL |
